This is an account of results in patent US12459951B2, “Compounds that interact with RAS superfamily proteins for treatment of cancers, inflammatory diseases, rasopathies, and fibrotic disease” (SHY Therapeutics, LLC, priority 2022, dated 2025).

In one assay the test system is IL6. The assay can be described thus: IL-6 Quantification Assay (ELISA), LPS-stimulated RAW 264.7. It is filed as cell-based. Details: inhibition: dose or concentration left out as unconfirmed. The settings on record: Mus musculus, RAW264.7; read-out: IL-6: % inh. Background: In an ELISA, binding on a coated surface is turned into a signal by an enzyme label.
In a further assay the target is T1, Rac-1 (Homo sapiens, UniProt P63000).
T1 construct: made in house
In words: Ras GTP Binding Domain Inhibition Assay (Ras Superfamily Assay). The settings on record: read-out: Rac-1: % inh. The gist of the method: (§1)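 His-tagged GTPases immobilised on nickel-coated plates, pre-incubated with compound (20 μM single point, or serial dilution for IC50) 3 h at room temperature, with or without 10-30 μg/mL Sos (residues 556-1049) in the final hour. Bound Cy3- or Cy5-GTP (100 nM, 45 min) measured by fluorescence after washing.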

The next assay relates to KRas G12C mutant. Described as above. The settings on record: 20 μM compound; for KRas G12C mutant + SOS: % inh.: with SOS; for KRas G12C mutant: % inh.: without SOS. The gist of the method:
as §1

Assay [1] deals with Smad2/Smad3 phosphorylation. In words: Phospho-Smad2/3 Inhibition Assay (western blot), Panc-1. Type of assay: cell-based, human. The settings on record: at 10 μM, Panc-1 pancreatic cancer cell line; starred symbols = activation. The essentials: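 Panc-1 cells (KRas G12D), starved overnight in 0.5% FBS, treated 3 h at 37° C with compound at 10 μM final (0.3% DMSO) or serial dilutions for IC50, then stimulated with 10 ng/ml TGF-b1 for 1 h. Phospho-Smad2 (Ser465/467) and phospho-Smad3 (Ser423/425) detected by western blot.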
In general terms: In western blotting, separated proteins are transferred to a membrane and probed.

Turning to `COc1cc(Nc2nc(-c3nccn3C)nn3cc(-c4ccn(C(C)C)n4)c(C)c23)n[nH]1` [Compound 51, 6-(1-Isopropyl-1H-pyrazol-3-yl)-N-(5-methoxy-1H-pyrazol-3-yl)-5-methyl-2-(1-methyl-1H-imidazol-2-yl)pyrrolo[2,1-f][1,2,4]triazin-4-amine], the inhibition with IL6 was in the range of 50 to 74%. Also, the inhibition at 20 µM on Rac-1 lay within 76 to 100%. Moreover, in the assay on KRas G12C mutant, the “KRas G12C mutant + SOS: % inh.” value is listed as “C (C = 50-75% inhibition)” and the “KRas G12C mutant: % inh.” value is “C (C = 50-75% inhibition)”. Also, the “% inh of Smad2/3 phosphorylation in Panc-1” value (from here on “% inh … in Panc-1”) in assay [1] is on record as “D (D = 76-100% inhibition)”.

On to `COc1ccc(Nc2nc(-c3nccn3C)nn3cc(-c4ccn(C(C)C)n4)c(C)c23)nn1` [Compound 74, 6-(1-Isopropyl-1H-pyrazol-3-yl)-N-(6-methoxypyridazin-3-yl)-5-methyl-2-(1-methyl-1H-imidazol-2-yl)pyrrolo[2,1-f][1,2,4]triazin-4-amine], for which, in the assay on IL6, the inhibition fell in the range of 1 to 24%. Besides, the inhibition at 20 µM at Rac-1 lay within 1 to 25%. The “% inh … in Panc-1” value in assay [1] is “A* (A* = 1-25% activation)”.

For `Cc1c(-c2ccn(C)n2)cn2nc(-c3nccn3C)nc(Nc3cc(-c4cccnc4)[nH]n3)c12` [Compound 264, 5-Methyl-2-(1-methyl-1H-imidazol-2-yl)-6-(1-methyl-1H-pyrazol-3-yl)-N-(5-(pyridin-3-yl)-1H-pyrazol-3-yl)pyrrolo[2,1-f][1,2,4]triazin-4-amine], the inhibition in the assay with IL6 lay in the range of 75 to 100%. The inhibition at 20 µM on Rac-1 is 76 to 100%. The “% inh … in Panc-1” value in assay [1] is “A (A = 1-25% inhibition)”.

With `Cc1c(-c2ccn(C)n2)cn2nc(-c3nccn3C)nc(Nc3cc(-c4ccccn4)ccn3)c12` [Compound 248, N-([2,4′-Bipyridin]-2′-yl)-5-methyl-2-(1-methyl-1H-imidazol-2-yl)-6-(1-methyl-1H-pyrazol-3-yl)pyrrolo[2,1-f][1,2,4]triazin-4-amine], the inhibition with IL6 lay in the range of 75 to 100%. Moreover, the inhibition at 20 µM on Rac-1 was 76 to 100%. Also, in assay [1], the “% inh … in Panc-1” value is on record as “D* (D* = 76-100% activation)”.

With `CO[C@H]1C[C@H](Nc2nc(-c3nccn3C)nn3cc(-c4ccn(C)n4)c(C4CC4)c23)C1` [Compound 275, 5-Cyclopropyl-N-((1r,3r)-3-methoxycyclobutyl)-2-(1-methyl-1H-imidazol-2-yl)-6-(1-methyl-1H-pyrazol-3-yl)pyrrolo[2,1-f][1,2,4]triazin-4-amine], the inhibition in the assay with IL6 was determined as 0%. Moreover, the inhibition at 20 µM at Rac-1 fell in the range of 1 to 25%. For the same molecule, the “% inh … in Panc-1” value in assay [1] is “B (B = 26-45% inhibition)”.

Turning to `Cc1c(-c2ccn(C)n2)cn2nc(-c3nccn3C)nc(Nc3cc(OC(F)F)n(C)n3)c12` [Compound 254, N-(5-(Difluoromethoxy)-1-methyl-1H-pyrazol-3-yl)-5-methyl-2-(1-methyl-1H-imidazol-2-yl)-6-(1-methyl-1H-pyrazol-3-yl)pyrrolo[2,1-f][1,2,4]triazin-4-amine], the inhibition in the assay with IL6 was 25 to 49%. Besides, the inhibition at 20 µM at Rac-1 was 76 to 100%. The “% inh … in Panc-1” value in assay [1] is “B* (B* = 26-45% activation)”.

Consider `Cc1c(-c2ccn(C)n2)cn2nc(-c3nccn3C)nc(Nc3ccc(-c4ccccn4)cn3)c12` [Compound 249, N-([2,3′-Bipyridin]-6′-yl)-5-methyl-2-(1-methyl-1H-imidazol-2-yl)-6-(1-methyl-1H-pyrazol-3-yl)pyrrolo[2,1-f][1,2,4]triazin-4-amine], for which, in the assay on IL6, the inhibition lay within 75 to 100%. For the same molecule, at Rac-1, the inhibition at 20 µM is 76 to 100%. For the same molecule, in assay [1], the “% inh … in Panc-1” value is reported as 0 (0 = 0% inhibition).

`Cc1[nH]nc(Nc2nc(-c3nccn3C)nn3cc(-c4ccn(C)n4)c(C)c23)c1C` [Compound 267, N-(4,5-Dimethyl-1H-pyrazol-3-yl)-5-methyl-2-(1-methyl-1H-imidazol-2-yl)-6-(1-methyl-1H-pyrazol-3-yl)pyrrolo[2,1-f][1,2,4]triazin-4-amine]: in the assay with IL6, the inhibition is 50 to 74%. At Rac-1, the inhibition at 20 µM lay within 76 to 100%. Besides, the “% inh … in Panc-1” value in assay [1] is “B (B = 26-45% inhibition)”.

In the case of `Cc1c(-c2ccn(C)n2)cn2nc(-c3nccn3C)nc(Oc3cc(N)[nH]n3)c12` [Compound 262, 3-((5-Methyl-2-(1-methyl-1H-imidazol-2-yl)-6-(1-methyl-1H-pyrazol-3-yl)pyrrolo[2,1-f][1,2,4]triazin-4-yl)oxy)-1H-pyrazol-5-amine], in the assay with IL6, the inhibition lay in the range of 1 to 24%. Also, the inhibition at 20 µM on Rac-1 was in the range of 50 to 75%. Besides, the “% inh … in Panc-1” value in assay [1] is on record as “B* (B* = 26-45% activation)”.

Regarding `Cc1c(-c2ccn(C(C)C)n2)cn2nc(-c3nccn3C)nc(Nc3ccncc3)c12` [Compound 52, 6-(1-Isopropyl-1H-pyrazol-3-yl)-5-methyl-2-(1-methyl-1H-imidazol-2-yl)-N-(pyridin-4-yl)pyrrolo[2,1-f][1,2,4]triazin-4-amine], the inhibition in the assay on IL6 was 0%. Further, on Rac-1, the inhibition at 20 µM is 0%. Besides, in the assay with KRas G12C mutant, the “KRas G12C mutant + SOS: % inh.” value is reported as “A (A = 1-25% inhibition)” and the “KRas G12C mutant: % inh.” value is given as 0 (0 = 0% inhibition). For the same molecule, the “% inh … in Panc-1” value in assay [1] was “D (D = 76-100% inhibition)”.

`Cc1c(-c2ccn(C)n2)cn2nc(-c3nccn3C)nc(Nc3cc(C4CCC4)[nH]n3)c12` [Compound 257, N-(5-Cyclobutyl-1H-pyrazol-3-yl)-5-methyl-2-(1-methyl-1H-imidazol-2-yl)-6-(1-methyl-1H-pyrazol-3-yl)pyrrolo[2,1-f][1,2,4]triazin-4-amine]: in the assay on IL6, the inhibition is 75 to 100%. The inhibition at 20 µM at Rac-1 lay within 50 to 75%. Further, the “% inh … in Panc-1” value in assay [1] is listed as “D* (D* = 76-100% activation)”.

As to `Cc1c(-c2ccn(C)n2)cn2nc(-c3nccn3C)nc(Nc3cc(-c4ccncc4)[nH]n3)c12` [Compound 266, 5-Methyl-2-(1-methyl-1H-imidazol-2-yl)-6-(1-methyl-1H-pyrazol-3-yl)-N-(5-(pyridin-4-yl)-1H-pyrazol-3-yl)pyrrolo[2,1-f][1,2,4]triazin-4-amine], the inhibition in the assay with IL6 fell in the range of 25 to 49%. Further, the inhibition at 20 µM on Rac-1 is 76 to 100%. The “% inh … in Panc-1” value in assay [1] is given as “D* (D* = 76-100% activation)”.

In the case of `Cc1c(-c2ccn(C)n2)cn2nc(-c3nccn3C)nc(Nc3cc(C(F)(F)F)[nH]n3)c12` [Compound 259, 5-Methyl-2-(1-methyl-1H-imidazol-2-yl)-6-(1-methyl-1H-pyrazol-3-yl)-N-(5-(trifluoromethyl)-1H-pyrazol-3-yl)pyrrolo[2,1-f][1,2,4]triazin-4-amine], in the assay with IL6, the inhibition was 50 to 74%. Besides, the inhibition at 20 µM on Rac-1 fell in the range of 76 to 100%. The “% inh … in Panc-1” value in assay [1] is reported as “A (A = 1-25% inhibition)”.

Take `COc1ccnc(Nc2nc(-c3nccn3C)nn3cc(-c4ccn(C)n4)c(C4CC4)c23)c1` [Compound 276, 5-Cyclopropyl-N-(4-methoxypyridin-2-yl)-2-(1-methyl-1H-imidazol-2-yl)-6-(1-methyl-1H-pyrazol-3-yl)pyrrolo[2,1-f][1,2,4]triazin-4-amine]: the inhibition in the assay with IL6 lay within 50 to 74%. Also, the inhibition at 20 µM at Rac-1 was in the range of 76 to 100%. The “% inh … in Panc-1” value in assay [1] is “B (B = 26-45% inhibition)”.

Regarding `Cc1c(-c2ccn(C)n2)cn2nc(-c3nccn3C)nc(Nc3cc[nH]n3)c12` [Compound 256, 5-Methyl-2-(1-methyl-1H-imidazol-2-yl)-6-(1-methyl-1H-pyrazol-3-yl)-N-(1H-pyrazol-3-yl)pyrrolo[2,1-f][1,2,4]triazin-4-amine], the inhibition in the assay on IL6 lay within 50 to 74%. In addition, the inhibition at 20 µM at Rac-1 lay in the range of 76 to 100%. The “% inh … in Panc-1” value in assay [1] was “D* (D* = 76-100% activation)”.
